Source: US20160011174A1, “Assay for Determining the Cell Number in Cultured Cells” (KEELE UNIVERSITY, priority 2013, published 2016)
One block for each compound: values may come before it.

What was measured:
[1] = tested on: hMSCs; test: SIFT-MS headspace DMS in hMSC cultures (DMSO reduction to DMS); assay type: cell-based, human; settings: approximately 5(10^6) hMSCs, 24 hours pre-treatment plus 16 hours sealed incubation, 0.1% v/v DMSO
Method: (§1) Human mesenchymal stem cells, hMSCs, are a primary cell type, and were isolated from a bone marrow aspirate sample (person; Lonza, US) using the plastic-adherence methodology and the hepG2 cells are of a human hepatocellular carcinoma cell line (Eton Bioscience, US), a cell line commonly used for the study of liver function. In both cases, the cells were cultured to confluence in Dulbecco's modified Eagle's medium (DMEM; Lonza, UK), supplemented with 10% v/v foetal bovine serum (FBS; Lonza, UK), 50 U mL^−1 penicillin-streptomycin (Lonza, UK) and 2 mM L-glutamine (Lonza, UK). The hMSCs additionally contained 1% v/v non-essential amino acids. The hMSCs were not cultured beyond passage number 4, whereas the well-differentiated hepG2 cells were analysed before passage number 20.
(§2) The inhibitor solutions were then added to volumes of medium so that the final DMSO concentration was always 0.1% v/v (or ˜14 500 μM). […] On the evening prior to the analysis, the cells were removed from the tissue culture flasks using trypsin, counted using a haemocytometer, and suspended in fresh DMEM media containing the ALDH inhibitor where appropriate, inside 150 mL glass bottles. […]
(§3) The methodology of SIFT-MS analyses for the sampling and quantification of compounds in the headspace of liquid samples has been described in detail previously (Refs 21,22,27-32). […]

[2] = tested on: hepG2 cells; test: Live-dead staining viability after sealed bottle incubation; assay type: cell-based, human; settings: 1.5(10^7) hepG2 cells sealed 16 hours; 200 μM DEAB or 20 μM DSF
Method: In order to assess any changes in the viability of hepG2 cells due to the method of analysis, which requires the cells to be sealed inside a glass bottle for around 16 hours, cells were cultured to near-confluence using the untreated medium described earlier, and observed using a live-dead staining (Sigma, UK), and confocal microscopy. […] The cell-suspensions were then sealed inside 150 mL glass bottles and incubated at 37° C. for 16 hours. The suspensions were then removed from the bottles and assessed by the same live-dead staining.

[3] = tested on: hepG2 cells; test: SIFT-MS headspace DMS in hepG2 cultures (DMSO reduction to DMS); assay type: cell-based, human
Method: as §1
(§4) The inhibitor solutions were then added to volumes of medium so that the final DMSO concentration was always 0.1% v/v (or ˜14 500 μM). In some experiments, inhibitors were added to hMSCs during routine culture, some 24 hours prior to proceeding to the next phase of the analysis, but this pre-treatment was not employed in the hepG2 experiments. […] The importance of precursor ions in the analysis is explained further in the SIFT-MS section below. The method used for the preparation of cell cultures for SIFTMS headspace analysis was adapted from the previous studies published in 2003 (ref. 21) and 2009 (ref. 22). On the evening prior to the analysis, the cells were removed from the tissue culture flasks using trypsin, counted using a haemocytometer, and suspended in fresh DMEM media containing the ALDH inhibitor where appropriate, inside 150 mL glass bottles. […] The headspace of each bottle was purged with dry cylinder air before the bottles were finally sealed with metal caps, which incorporate rubber septa, and placed inside an incubator to be held at 37° C. for around 16 hours/overnight.
(§5) The methodology of SIFT-MS analyses for the sampling and quantification of compounds in the headspace of liquid samples has been described in detail previously (Refs 21,22,27-32). […] The product ions and the precursor ions are then analysed by a quadrupole mass spectrometer/detection system. Throughout the present study the instrument was operated in the multiple ion monitoring (MIM) mode, during which the desired precursor ion and its hydrates (Ref 33) and the characteristic product ions, are continuously monitored. […] In brief, AA was analysed using H3O^+ precursor ions and the unique protonated AA characteristic product ion at m/z 45, as described in detail in a recent paper (Ref 36). […]

[4] = tested on: ALDH; test: SIFT-MS headspace AA in hMSC cultures with ALDH inhibitors; assay type: cell-based, human; settings: approximately 5(10^6) hMSCs, 24 hours pre-treatment plus 16 hours sealed incubation
Method: as §1, §2, §3

[5] = tested on: ALDH; test: SIFT-MS headspace acetaldehyde (AA) in hepG2 cultures with ALDH inhibitors; assay type: cell-based, human
Method: as §1
as §2, with “μM). In some experiments, inhibitors were added to hMSCs during routine culture, some 24 hours prior to proceeding to the next phase of the analysis, but this pre-treatment was not employed in the hepG2 experiments.” for “μM).”
as §5

[6] = tested on: hepG2 cells; test: Removal of added AA from DMEM medium by hepG2 cells (SIFT-MS headspace); assay type: in vitro ADME, human; settings: 20 million hepG2 cells; for headspace AA concentration after incubation with cells: 16 hours
Method: as §4
The methodology of SIFT-MS analyses for the sampling and quantification of compounds in the headspace of liquid samples has been described in detail previously (Refs 21,22,27-32). […] The product ions and the precursor ions are then analysed by a quadrupole mass spectrometer/detection system. Throughout the present study the instrument was operated in the multiple ion monitoring (MIM) mode, during which the desired precursor ion and its hydrates (Ref 33) and the characteristic product ions, are continuously monitored. This system, in combination with the previously compiled kinetics data for the reactions between the precursor ions and neutral molecules (Refs 34,35 rapidly allows the simultaneous absolute quantification of the concentrations of several selected volatile compounds of interest. The simultaneous detection and analysis of AA and DMS in a mixture presents a peculiar problem to SIFT-MS because of the overlap of characteristic product ions on which the analysis depends. However, the ion chemistry involved has been studied in detail and the kinetics database entries required for the accurate analyses of these two compounds by SIFT-MS have been constructed by following the guidelines given by previous studies (refs 34,35). In brief, AA was analysed using H3O^+ precursor ions and the unique protonated AA characteristic product ion at m/z 45, as described in detail in a recent paper (Ref 36). […]
Removal of AA from DMEM medium by cellular action. […] Identical medium samples without cells were also analysed (as described above) to obtain the starting (background) headspace AA concentration. […]

[7] = tested on: Caco2/TC7 colon tumour cell cultures; settings: cited from earlier work
[8] = 200 μM DEAB, about 1(10^7) hepG2 cells, 16 hours

SMILES: CCN(CC)c1ccc(C=O)cc1 [DEAB]
- effect on DMS production from DMSO [1]: effective at preventing DMS production from DMSO
- viability by live-dead staining [2]: little or no decline in the viability
- decline in headspace DMS ([3]; 0 to 25 μM DEAB, 1.5(10^7) hepG2 cells, 0.1% v/v DMSO): 30%
- DMS production ([3]; 200 μM DEAB, 1(10^4) to 5(10^6) hepG2 cells, 0.1% v/v DMSO): clearly reduced
- decline of slope of DMS concentration versus cell number ([3]; 200 μM DEAB, 5(10^6) up to 3(10^7) hepG2 cells, 0.1% v/v DMSO): about 30%
- effect on ALDH / ability of hMSCs to metabolise AA [4]: effective inhibitor of ALDH
- peak AA concentration in the liquid phase [5, 8]: 4 µM
- peak headspace AA concentration [5, 8]: around 600 ppbv
- headspace AA concentration with increasing DEAB concentration ([5]; 1.5(10^7) hepG2 cells, 16 hours at 37° C., DEAB in 0.1% v/v DMSO): general increase in the AA concentration

- reduction of headspace AA concentration by cells ([6]; 50 mL DMEM, 16 hours at 37° C.): approximately 90%
- headspace AA concentration after incubation with cells ([6]; starting 59 ppbv): 20 ppbv
- headspace AA concentration after incubation with cells ([6]; starting 396 ppbv): 48 ppbv
- headspace AA concentration after incubation with cells ([6]; starting 990 ppbv): 118 ppbv
SMILES: CC=O [AA, acetaldehyde]

SMILES: C[S+](C)[O-] [DMSO, dimethyl sulphoxide]
- DMSO concentration causing no observable cytotoxicity [7]: up to 10 % (v/v)
- liquid phase DMS concentration formed from DMSO ([3]; 0.1% v/v DMSO in medium, overnight incubation, by Henry's Law): > 300 nM
